Values of other authors, collected in patent US6794347B2, “Process of making gel detergent compositions” (Unilever Home & Personal Care USA a division of Conopco, …, priority 2002, dated 2004).
Where two headings read alike, the source gives them in different places.

Measured pKa value (Cited from Langmuir, Vol 16, pp 172-177, 2000): 8.6˜8.8
Measured pKa value (Cited from Proc. R. Soc. London, A133, 140, 1931): 8.5
Compound: CCCCCCCCCCCCCCCC(=O)O [Fatty acid chain length 16]
